In US6977180B2, “Biosensor” (Duke University, priority 2001, dated 2005):

How the values were obtained:
[1] = solution ligand binding by intrinsic tryptophan fluorescence of the conjugates, glucose; conditions: read-out: fKd(glucose), dissociation constant of the protein free in solution
Description: FIGS. 4A–4D. Ligand-mediated electrochemical responses of four electroactive biomolecular assemblies. Inserts show the current responses observed at different ligand concentrations, measured by scanning the potential at a constant frequency. FIG. 4A. G174C-MBP (1 kHz; ^eKd(maltose)=4 μM; ^fKd(maltose)=1 μM), FIG. 4B. L255C-GBP (0.1 kHz; ^eKd(glucose)=2.0 μM; ^fKd(glucose)=0.4 μM), FIG. 4C. G174C-eZBP, a redesigned variant of MBP that binds zinc (1 kHz; ^eKd (zinc)=10 μM; ^fKd(zinc)=3 μM), FIG. 4D. E163C-QBP (0.16 kHz; ^eKd(glutamine)=1.0 μM; ^fKd(glutamine)=0.2 μM. Two binding constants are reported: ^eKd is dissociation constant of the assembly, determined electrochemically; ^fKd is the dissocation constant of the protein free in solution, determined by measuring changes in the intrinsic tryptophan fluorescence of the conjugates. (For every protein presented, the ligand-binding affinities determined electrochemically using a disk gold electrode are 2–5 fold weaker than those in solution. However, if a gold microelectrode prepared by flame annealing a gold wire (Creager et al, Anal. Chem. 70:4257 (1998)) is used instead of a gold disk electrode, the electrochemically determined affinities are similar to the solution affinities.
Protein purification and labeling. […]

[2] = electrochemical (ac voltammetry) ligand binding of protein-modified gold electrode, glucose; conditions: gold disk electrode, 0.1 kHz, read-out: eKd(glucose), dissociation constant of the assembly, determined electrochemically
Description: FIGS. 4A–4D. Ligand-mediated electrochemical responses of four electroactive biomolecular assemblies. Inserts show the current responses observed at different ligand concentrations, measured by scanning the potential at a constant frequency. FIG. 4A. G174C-MBP (1 kHz; ^eKd(maltose)=4 μM; ^fKd(maltose)=1 μM), FIG. 4B. L255C-GBP (0.1 kHz; ^eKd(glucose)=2.0 μM; ^fKd(glucose)=0.4 μM), FIG. 4C. G174C-eZBP, a redesigned variant of MBP that binds zinc (1 kHz; ^eKd (zinc)=10 μM; ^fKd(zinc)=3 μM), FIG. 4D. […]
Electrochemistry. […] Ac current baselines were calculated by linear extrapolation between equidistant potentials from the observed midpoint reduction potential (˜220 mV), as reported previously (Creager et al, Anal. Chem. 70:4257–4263 (1998)). […]

Kd [1]: 400 nM
Kd [2]: 2000 nM
Substance: L255C-GBP: glucose-binding protein mutant L255C carrying the Ru(II) redox reporter
